What was measured:
Assay type in all cases: cell-based
CCRF-CEM = test: NCI-60 cell line panel: CCRF-CEM; conditions: Leukemia; for IC50: Homo sapiens; for TGI: total growth inhibition
Protocol: (§1) It was carried out at the NCI, Bethesda, MD, USA, utilizing their standard protocol.

RPMI-8226 = test: NCI-60 cell line panel: RPMI-8226; conditions: Leukemia; for IC50: Homo sapiens; for TGI: total growth inhibition
Protocol: as §1

EKVX = test: NCI-60 cell line panel: EKVX; conditions: Non-Small Cell Lung Cancer; for IC50: Homo sapiens
Protocol: as §1

HOP-62 = test: NCI-60 cell line panel: HOP-62; conditions: Non-Small Cell Lung Cancer; for IC50: Homo sapiens; for TGI: total growth inhibition
Protocol: as §1

NCI-H226 = test: NCI-60 cell line panel: NCI-H226; conditions: Non-Small Cell Lung Cancer; for IC50: Homo sapiens; for TGI: total growth inhibition
Protocol: as §1

NCI-H460 = test: NCI-60 cell line panel: NCI-H460; conditions: Non-Small Cell Lung Cancer; for IC50: Homo sapiens; for TGI: total growth inhibition
Protocol: as §1

HCC-2998 = test: NCI-60 cell line panel: HCC-2998; conditions: Colon Cancer; for TGI: total growth inhibition; for IC50: Homo sapiens
Protocol: as §1

HCT-15 = test: NCI-60 cell line panel: HCT-15; conditions: Colon Cancer; for TGI: total growth inhibition; for IC50: Homo sapiens
Protocol: as §1

HT29 = test: NCI-60 cell line panel: HT29; conditions: for TGI: Colon Cancer, total growth inhibition; for IC50: Homo sapiens, HT-29, Colon Cancer
Protocol: as §1

SF-268 = test: NCI-60 cell line panel: SF-268; conditions: CNS Cancer; for TGI: total growth inhibition; for IC50: Homo sapiens
Protocol: as §1

SF-295 = test: NCI-60 cell line panel: SF-295; conditions: CNS Cancer; for TGI: total growth inhibition, unit assumed; for IC50: Homo sapiens
Protocol: as §1

SF-539 = test: NCI-60 cell line panel: SF-539; conditions: CNS Cancer; for TGI: total growth inhibition; for IC50: Homo sapiens
Protocol: as §1

U251 = test: NCI-60 cell line panel: U251; parameters: TGI: unit not given here; conditions: for TGI: CNS Cancer, total growth inhibition; for IC50: Homo sapiens, U-251, CNS Cancer
Protocol: as §1

M14 = test: NCI-60 cell line panel: M14; conditions: Melanoma; for IC50: Homo sapiens; for TGI: total growth inhibition
Protocol: as §1

SK-MEL-2 = test: NCI-60 cell line panel: SK-MEL-2; parameters: TGI: unit not given here; conditions: Melanoma; for IC50: Homo sapiens; for TGI: total growth inhibition
Protocol: as §1

SK-MEL-5 = test: NCI-60 cell line panel: SK-MEL-5; conditions: Melanoma; for IC50: Homo sapiens; for TGI: total growth inhibition
Protocol: as §1

UACC-62 = test: NCI-60 cell line panel: UACC-62; conditions: Melanoma; for IC50: Homo sapiens; for TGI: total growth inhibition
Protocol: as §1

OVCAR-3 = test: NCI-60 cell line panel: OVCAR-3; conditions: Ovarian Cancer; for IC50: Homo sapiens; for TGI: total growth inhibition
Protocol: as §1

OVCAR-5 = test: NCI-60 cell line panel: OVCAR-5; conditions: Ovarian Cancer; for IC50: Homo sapiens; for TGI: total growth inhibition
Protocol: as §1

OVCAR-8 = test: NCI-60 cell line panel: OVCAR-8; conditions: Ovarian Cancer; for IC50: Homo sapiens; for TGI: total growth inhibition, in µM (unit assumed)
Protocol: as §1

SK-OV-3 = test: NCI-60 cell line panel: SK-OV-3; conditions: Ovarian Cancer; for IC50: Homo sapiens; for TGI: total growth inhibition
Protocol: as §1

ACHN = test: NCI-60 cell line panel: ACHN; conditions: Renal Cancer; for IC50: Homo sapiens; for TGI: total growth inhibition
Protocol: as §1

CAKI-1 = test: NCI-60 cell line panel: CAKI-1; parameters: TGI: unit not given here; conditions: Renal Cancer; for IC50: Homo sapiens; for TGI: total growth inhibition
Protocol: as §1

TK-10 = test: NCI-60 cell line panel: TK-10; conditions: Renal Cancer; for IC50: Homo sapiens; for TGI: total growth inhibition
Protocol: as §1

UO-31 = test: NCI-60 cell line panel: UO-31; parameters: TGI: unit not given here; conditions: Renal Cancer; for IC50: Homo sapiens; for TGI: total growth inhibition
Protocol: as §1

PC-3 = test: NCI-60 cell line panel: PC-3; conditions: Prostate Cancer; for IC50: Homo sapiens; for TGI: total growth inhibition
Protocol: as §1

DU-145 = test: NCI-60 cell line panel: DU-145; conditions: Prostate Cancer; for IC50: Homo sapiens; for TGI: total growth inhibition
Protocol: as §1

MCF7 = test: NCI-60 cell line panel: MCF7; conditions: Breast Cancer; for TGI: total growth inhibition; for IC50: Homo sapiens
Protocol: as §1

MDA-MB-231/ATCC = test: NCI-60 cell line panel: MDA-MB-231/ATCC; conditions: Breast Cancer; for TGI: total growth inhibition; for IC50: Homo sapiens
Protocol: as §1

HS 578T = test: NCI-60 cell line panel: HS 578T; conditions: for TGI: Breast Cancer, HS 578T, total growth inhibition; for IC50: Homo sapiens, Hs-578T
Protocol: as §1

BT-549 = test: NCI-60 cell line panel: BT-549; conditions: Breast Cancer; for TGI: total growth inhibition; for IC50: Homo sapiens
Protocol: as §1

[1] = tested on: hepatocellular carcinoma cell lines; test: Screening against HCC cell lines
Protocol: The target compounds were tested against hepatocellular carcinoma cell lines. Compounds 1j. 13a. 13b. 13c. […] The mean inhibition percentage values are illustrated in Table 9.
Two HCC cell lines (Hep3B and HepG2) were used for screening the antiproliferative activity of the synthesized compounds. The cell lines were obtained from the European Collection of Cell Cultures (ECACC, UK) and maintained in Dulbecco's Modified Eagle Medium (DMEM: Sigma-Aldrich) supplemented with 10% fetal bovine serum (FBS) and 1% penicillin/streptomycin and incubated at 37° C. in a 5% CO2 air atmosphere. In addition, WI-38 normal cell line was used to investigate the safety of these compounds.
MTT assay was conducted to calculate the IC50 of the compounds following the reported procedure . Briefly, the cells were seeded in 96-well tissue culture plates with a density of 5×10^4 cells/well and incubated overnight at 37° C. in a 5% CO2 air atmosphere. After that, cells were treated with the newly synthesized compounds or sorafenib as a positive control. DMSO was used as a negative control. After 48 h, the media were aspirated, and replaced with media containing 0.5 mg/mL of MTT tetrazolium dye (Sigma-Aldrich) for 2 h at 37° C. Finally, the media were removed and 200 μL of DMSO was added to solubilize the formazan crystals. Absorbance was then measured at 570 nm using Varioskan Flash multimode plate reader (Thermo Scientific, Massachusetts, USA).

Compound `CCN1CCN(c2ccc(NC(=O)Nc3ccc(-c4cc(C(=O)NC(C)C)c5ncccc5n4)cc3)cc2C(F)(F)F)CC1` [Compound 13f, 2-(4-(3-(4-(4-Ethylpiperazin-1-yl)-3-(trifluoromethyl)phenyl)ureido)phenyl)-N-isopropyl-1,5-naphthyridine-4-carboxamide] has an IC50 (CCRF-CEM) of 1010 nM, a TGI (CCRF-CEM) of 3100 nM and an IC50 (RPMI-8226) of 1040 nM. The TGI (RPMI-8226) was greater than 34500 nM, the IC50 (EKVX) was 1610 nM and the TGI (EKVX; total growth inhibition, in µM (unit assumed)) was 5.82. It also gave an IC50 (HOP-62) of 3830 nM, a TGI (HOP-62) of 8890 nM and an IC50 (NCI-H226) of 5020 nM. For the same compound, the TGI (NCI-H226) was 12500 nM, the IC50 (NCI-H460) was 620 nM and the TGI (NCI-H460) was 1180 nM. It also gave a TGI (HCC-2998) of 5090 nM, an IC50 (HCC-2998) of 1440 nM and a TGI (HCT-15) of 1350 nM. The IC50 (HCT-15) was 670 nM, the TGI (HT29) was 1320 nM and the IC50 (HT29) was 670 nM. The TGI (SF-268) was 10900 nM, the IC50 (SF-268) was 3560 nM and the TGI (SF-295) was 1140 nM. The IC50 (SF-295) was 580 nM, the TGI (SF-539) was 1020 nM and the IC50 (SF-539) was 530 nM. It also gave a TGI (U251) of 4.82, an IC50 (U251) of 1240 nM and an IC50 (M14) of 720 nM. The TGI (M14) was 1900 nM, the IC50 (SK-MEL-2) was 4820 nM and the TGI (SK-MEL-2) was 9.89. The IC50 (SK-MEL-5) was 1410 nM, the TGI (SK-MEL-5) was 5280 nM and the IC50 (UACC-62) was 3990 nM. The TGI (UACC-62) was 8280 nM, the IC50 (OVCAR-3) was 640 nM and the TGI (OVCAR-3) was 1360 nM. For the same compound, the IC50 (OVCAR-5) was 1600 nM, the TGI (OVCAR-5) was 6090 nM and the IC50 (OVCAR-8) was 5690 nM. The TGI (OVCAR-8) was 17.5, the IC50 (SK-OV-3) was 5330 nM and the TGI (SK-OV-3) was 1080 nM. It also gave an IC50 (ACHN) of 1020 nM, a TGI (ACHN) of 3470 nM and an IC50 (CAKI-1) of 800 nM. It also gave a TGI (CAKI-1) of 2.08, an IC50 (TK-10) of 1350 nM and a TGI (TK-10) of 4870 nM. For the same compound, the IC50 (UO-31) was 2180 nM, the TGI (UO-31) was 6.81 and the IC50 (PC-3) was 760 nM. It also gave a TGI (PC-3) of 2100 nM, an IC50 (DU-145) of 750 nM and a TGI (DU-145) of 1580 nM. The TGI (MCF7) was 1500 nM, the IC50 (MCF7) was 630 nM and the TGI (MDA-MB-231/ATCC) was 1180 nM. The IC50 (MDA-MB-231/ATCC) was 610 nM, the TGI (HS 578T) was 3450 nM and the IC50 (HS 578T) was 880 nM. For the same compound, the TGI (BT-549) was 9570 nM, the IC50 (BT-549) was 4830 nM and the “inhibition activity against hepatocellular carcinoma cell lines compared with sorafenib” value [1] was “higher inhibition activity than sorafenib”.

`CCN1CCN(c2ccc(NC(=O)Nc3ccc(-c4cc(C(=O)NC)c5ncccc5n4)cc3)cc2C(F)(F)F)CC1` [Compound 13c, 2-(4-(3-(4-(4-Ethylpiperazin-1-yl)-3-(trifluoromethyl)phenyl)ureido)phenyl)-N-methyl-1,5-naphthyridine-4-carboxamide] gave an IC50 (CCRF-CEM) of 460 nM, a TGI (CCRF-CEM) of 1270 nM and an IC50 (RPMI-8226) of 3050 nM. For the same compound, the TGI (RPMI-8226) was greater than 18000 nM, the IC50 (EKVX) was 2940 nM and the IC50 (HOP-62) was 2790 nM. For the same compound, the TGI (HOP-62) was 5410 nM, the IC50 (NCI-H226) was 2700 nM and the TGI (NCI-H226) was 6360 nM. For the same compound, the IC50 (NCI-H460) was 660 nM, the TGI (NCI-H460) was 2930 nM and the TGI (HCC-2998) was 5310 nM. The IC50 (HCC-2998) was 2830 nM, the TGI (HCT-15) was 700 nM and the IC50 (HCT-15) was 330 nM. For the same compound, the TGI (HT29) was 2110 nM, the IC50 (HT29) was 530 nM and the TGI (SF-268) was 7000 nM. The IC50 (SF-268) was 3090 nM, the TGI (SF-295) was 4470 nM and the IC50 (SF-295) was 2060 nM. It also gave a TGI (SF-539) of 4570 nM, an IC50 (SF-539) of 2300 nM and a TGI (U251) of 5.53. The IC50 (U251) was 2690 nM, the IC50 (M14) was 400 nM and the TGI (M14) was 1050 nM. It also gave an IC50 (SK-MEL-2) of 9870 nM, a TGI (SK-MEL-2) greater than 18.0 and an IC50 (SK-MEL-5) of 2050 nM. For the same compound, the TGI (SK-MEL-5) was 4260 nM, the IC50 (UACC-62) was 3060 nM and the TGI (UACC-62) was 5660 nM. The IC50 (OVCAR-3) was 2540 nM, the TGI (OVCAR-3) was 5060 nM and the IC50 (OVCAR-5) was 2820 nM. It also gave a TGI (OVCAR-5) of 5230 nM, an IC50 (OVCAR-8) of 3850 nM and a TGI (OVCAR-8) of 10.50. It also gave an IC50 (SK-OV-3) of 3480 nM, a TGI (SK-OV-3) of 7500 nM and an IC50 (ACHN) of 2390 nM. For the same compound, the TGI (ACHN) was 4730 nM, the IC50 (CAKI-1) was 3010 nM and the TGI (CAKI-1) was 5.60. The IC50 (TK-10) was 3860 nM, the TGI (TK-10) was 6630 nM and the IC50 (UO-31) was 2710 nM. For the same compound, the TGI (UO-31) was 5.14, the IC50 (PC-3) was 2880 nM and the TGI (PC-3) was 6030 nM. The IC50 (DU-145) was 2230 nM, the TGI (DU-145) was 4900 nM and the TGI (MCF7) was 610 nM. The IC50 (MCF7) was 290 nM, the TGI (MDA-MB-231/ATCC) was 5250 nM and the IC50 (MDA-MB-231/ATCC) was 2780 nM. The TGI (HS 578T) was 6880 nM, the IC50 (HS 578T) was 2390 nM and the TGI (BT-549) was 5670 nM. For the same compound, the IC50 (BT-549) was 2780 nM and the “inhibition activity against hepatocellular carcinoma cell lines compared with sorafenib” value [1] was “higher inhibition activity than sorafenib”.

— patent US20240308996A1, “PYRIDOPYRIDINES AND DERIVATIVES THEREOF AS SELECTIVE KINASE INHIBITORS” (University of Sharjah, priority 2023, published 2024)
